Assays:
[1] = system: pSTAT1; assay: Phosphorylation inhibition of STAT in human whole blood, IFN-alpha stimulated (flow cytometry); format: cell-based; conditions: 20 min; human whole blood, IFN-alpha 20 mins, CD3 cells; read-out: IC50 on pSTAT1 inhibition in h WB
How it was run: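 Readout is pSTAT1 (Y701) in CD3-stained cells by flow cytometry, with IC50 derived from a 4-parameter logistic equation. Fresh human PBMC or fresh whole blood received a 20-min Universal Type I IFN-alpha stimulation before fixation and cold permeabilization.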

[2] = molecular target: T1, Ba/F3-FL-TYK2-P760L cells (Homo sapiens, UniProt P29597, P760L, cells depend on it); assay: Anti-proliferative assay, Ba/F3-FL-TYK2-P760L cells (Cell-Titer Glo); format: cell-based; conditions: 72 h, read-out: BaF3-FL-T2P760L IC50
T1 construct: BaF3-FL-T2P760L (nM)
How it was run: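 Compound exposure ran 72 h at 37 °C in 5% CO2 across nine 3-fold concentrations from a 20 μM top dose, added 24 h after seeding 2000 cells/well.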

[3] = molecular target: T2, JAK1-JH2 domain (Homo sapiens, UniProt P23458); assay: Binding activity test for JH2 domain of JAK1 (Tb-antibody/tracer FRET)
T2 construct: IC50 on JH2 domain activity (nM)
How it was run: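 FRET read-out after 60 min at 25° C plus overnight at 4° C; tracer displacement detected via Tb-labelled antibody on the JH2 domain. Dose-response used 11 points at 3-fold dilution.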

[4] = molecular target: T3, TYK2 (Homo sapiens, UniProt P29597); assay: TYK2 kinase activity, microfluidic assay (Caliper EZ Reader II); format: biochemical; conditions: TYK2 1 nM, 1 mM ATP
T3 construct: purchased Carna Biosciences
How it was run: (§1)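 Human JAK1, JAK2 or TYK2 enzyme was used in 50 mM HEPES, 10 mM MgCl2, 2 mM DTT and 0.01% Brij35, tuned to 10% conversion of a FAM-labelled peptide. Threefold dilutions of compound (top 5 µM, 1% DMSO) were pre-incubated with enzyme for 10 min, and reactions were stopped with EDTA. Phosphorylation was read by microfluidic mobility shift, and IC50 came from percent-inhibition curves.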

[5] = molecular target: T4, JAK1 (Homo sapiens, UniProt P23458); assay: JAK1 kinase activity, microfluidic assay (Caliper EZ Reader II); format: biochemical; conditions: JAK1 5 nM, 1 mM ATP
T4 construct: purchased Carna Biosciences
How it was run: as §1

T3 sequence (P29597 whole entry): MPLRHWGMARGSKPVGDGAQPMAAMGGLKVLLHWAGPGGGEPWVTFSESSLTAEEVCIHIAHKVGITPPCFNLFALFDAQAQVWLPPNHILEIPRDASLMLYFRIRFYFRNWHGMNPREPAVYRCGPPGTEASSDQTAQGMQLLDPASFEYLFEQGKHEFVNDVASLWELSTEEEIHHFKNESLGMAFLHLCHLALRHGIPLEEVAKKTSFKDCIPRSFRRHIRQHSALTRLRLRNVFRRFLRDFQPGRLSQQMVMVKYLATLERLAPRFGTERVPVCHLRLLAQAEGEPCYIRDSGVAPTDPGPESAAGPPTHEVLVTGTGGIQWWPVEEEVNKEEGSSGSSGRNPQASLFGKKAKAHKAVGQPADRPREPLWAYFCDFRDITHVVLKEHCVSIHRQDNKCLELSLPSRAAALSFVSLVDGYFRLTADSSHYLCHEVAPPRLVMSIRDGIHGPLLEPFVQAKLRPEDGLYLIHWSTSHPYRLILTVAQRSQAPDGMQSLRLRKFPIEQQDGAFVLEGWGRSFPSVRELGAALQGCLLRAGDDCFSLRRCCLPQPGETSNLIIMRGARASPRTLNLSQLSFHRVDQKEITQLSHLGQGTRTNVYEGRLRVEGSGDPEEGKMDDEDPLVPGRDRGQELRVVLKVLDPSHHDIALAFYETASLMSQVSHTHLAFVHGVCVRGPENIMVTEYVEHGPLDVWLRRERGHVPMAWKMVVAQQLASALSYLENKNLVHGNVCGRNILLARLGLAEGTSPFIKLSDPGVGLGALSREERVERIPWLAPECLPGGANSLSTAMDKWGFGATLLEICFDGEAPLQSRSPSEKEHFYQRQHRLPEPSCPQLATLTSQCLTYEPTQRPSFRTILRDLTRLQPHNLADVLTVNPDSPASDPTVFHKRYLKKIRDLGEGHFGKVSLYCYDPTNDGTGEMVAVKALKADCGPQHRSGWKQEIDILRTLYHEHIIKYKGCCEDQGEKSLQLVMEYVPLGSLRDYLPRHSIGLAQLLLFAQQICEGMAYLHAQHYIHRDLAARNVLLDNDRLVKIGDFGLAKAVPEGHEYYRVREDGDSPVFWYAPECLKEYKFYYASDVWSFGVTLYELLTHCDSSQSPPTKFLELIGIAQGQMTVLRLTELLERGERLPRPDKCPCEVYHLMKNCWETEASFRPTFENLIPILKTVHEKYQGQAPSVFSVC
T4 sequence (P23458 whole entry): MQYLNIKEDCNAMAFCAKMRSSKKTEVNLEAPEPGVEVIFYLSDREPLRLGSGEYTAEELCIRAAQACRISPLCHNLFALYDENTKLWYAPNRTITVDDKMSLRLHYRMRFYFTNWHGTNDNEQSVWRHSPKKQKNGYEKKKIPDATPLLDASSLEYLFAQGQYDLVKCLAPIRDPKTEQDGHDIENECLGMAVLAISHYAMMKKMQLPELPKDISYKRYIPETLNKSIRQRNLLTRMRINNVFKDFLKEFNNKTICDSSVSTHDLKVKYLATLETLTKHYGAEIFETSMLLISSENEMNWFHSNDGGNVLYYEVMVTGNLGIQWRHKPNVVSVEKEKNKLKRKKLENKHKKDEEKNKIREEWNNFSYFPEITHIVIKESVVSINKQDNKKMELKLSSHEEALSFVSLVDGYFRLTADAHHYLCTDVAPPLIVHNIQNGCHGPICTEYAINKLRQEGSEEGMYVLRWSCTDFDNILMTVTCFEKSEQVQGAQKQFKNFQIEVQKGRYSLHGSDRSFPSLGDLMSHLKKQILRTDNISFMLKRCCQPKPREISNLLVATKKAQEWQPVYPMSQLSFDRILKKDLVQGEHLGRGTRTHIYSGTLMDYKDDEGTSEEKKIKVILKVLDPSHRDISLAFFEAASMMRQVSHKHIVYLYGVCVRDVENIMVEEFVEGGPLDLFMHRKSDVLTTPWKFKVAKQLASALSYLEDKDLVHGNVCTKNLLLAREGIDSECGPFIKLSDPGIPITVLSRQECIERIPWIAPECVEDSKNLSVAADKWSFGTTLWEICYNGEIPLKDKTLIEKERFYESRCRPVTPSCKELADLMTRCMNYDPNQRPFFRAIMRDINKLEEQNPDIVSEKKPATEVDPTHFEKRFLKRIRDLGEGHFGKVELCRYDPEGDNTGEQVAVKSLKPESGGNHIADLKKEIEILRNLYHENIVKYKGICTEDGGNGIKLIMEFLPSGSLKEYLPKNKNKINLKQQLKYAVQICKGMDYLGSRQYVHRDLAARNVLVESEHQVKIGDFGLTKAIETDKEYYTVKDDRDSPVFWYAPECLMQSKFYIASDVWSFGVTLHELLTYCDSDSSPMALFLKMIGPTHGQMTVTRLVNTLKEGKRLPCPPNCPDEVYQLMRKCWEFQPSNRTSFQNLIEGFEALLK
T1 sequence (P29597 whole entry P760L): as the sequence (P29597 whole entry) above, with P760L counted along it
T2 sequence (P23458 583-855 limits assumed): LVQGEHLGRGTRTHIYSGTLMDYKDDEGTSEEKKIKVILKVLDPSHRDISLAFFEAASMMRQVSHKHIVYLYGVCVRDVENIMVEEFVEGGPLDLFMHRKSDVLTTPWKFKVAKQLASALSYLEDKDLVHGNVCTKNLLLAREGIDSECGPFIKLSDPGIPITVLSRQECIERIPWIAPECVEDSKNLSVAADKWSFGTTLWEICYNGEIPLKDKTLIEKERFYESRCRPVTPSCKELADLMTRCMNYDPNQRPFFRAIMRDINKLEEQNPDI

Question: For `[2H]C([2H])([2H])NC(=O)c1cnc(NC(=O)C2CC2)cc1Nc1ccc2cnn(CC)c2c1OC` [Example 44, 6-(Cyclopropanecarboxamido)-4-((1-ethyl-7-methoxy-1H-indazol-6-yl)amino)-N-(methyl-d3)nicotinamide], which IC50 [1] is on record?
Answer: Its IC50 is 219 nM.

Question: And the GI50 [2]?
Answer: Its GI50 is 56.2 nM.

Question: And the IC50 [3]?
Answer: The IC50 was 9.89 nM.

Question: What about the IC50 [4] of the same compound?
Answer: Its IC50 is greater than 5 µM.

Question: And the IC50 [5]?
Answer: The IC50 was greater than 5 µM.

Question: Which results are given for `[2H]C([2H])([2H])NC(=O)c1cnc(NC(=O)C2CC2)cc1Nc1ncc2cnn(CC)c2c1OC` [Example 262, 6-(Cyclopropanecarboxamido)-4-((1-ethyl-7-methoxy-1H-pyrazolo[4,3-c]pyridin-6-yl)amino)-N-(methyl-d3)nicotinamide]?
Answer: IC50 [1]: 102 nM; GI50 [2]: 41.6 nM; IC50 [3]: 14.8 nM; IC50 [4]: > 5 µM; IC50 [5]: > 5 µM

Question: What does the source list for `[2H]C([2H])([2H])NC(=O)c1cnc(NC(=O)C2CC2)cc1Nc1ccn2ncc(C#N)c2c1OC` [Example 165, 4-((3-Cyano-4-methoxypyrazolo[1,5-a]pyridin-5-yl)amino)-6-(cyclopropanecarboxamido)-N-(methyl-d3)nicotinamide]?
Answer: IC50 [1]: 284 nM; GI50 [2]: 98.2 nM; IC50 [3]: 18.6 nM; IC50 [4]: > 5 µM; IC50 [5]: > 5 µM

Question: With `[2H]C([2H])([2H])NC(=O)c1cnc(Nc2ccc(F)cn2)cc1Nc1nn(C)c2ccn(CC)c(=O)c12` [Example 139, 4-((5-Ethyl-1-methyl-4-oxo-4,5-dihydro-1H-pyrazolo[4,3-c]pyridin-3-yl)amino)-6-((5-fluoropyridin-2-yl)amino)-N-(methyl-d3)nicotinamide] as the compound, how does the IC50 [1] read?
Answer: Its IC50 is 1180 nM.

Question: And the GI50 [2]?
Answer: The GI50 was 33.1 nM.

Question: And the IC50 [3]?
Answer: The IC50 was 12.4 nM.

Question: Which results are given for `[2H]C([2H])([2H])NC(=O)c1cnc(NC(=O)C2CC2)cc1Nc1ccc2cnn(CC(F)(F)F)c2c1OC` [Example 129, 6-(Cyclopropanecarboxamido)-4-((7-methoxy-1-(2,2,2-trifluoroethyl)-1H-indazol-6-yl)amino)-N-(methyl-d3)nicotinamide]?
Answer: IC50 [1]: 395 nM; GI50 [2]: 69.3 nM; IC50 [3]: 20.8 nM

Reference: US20250115597A1, “TYK2 INHIBITORS AND COMPOSITIONS AND METHODS THEREOF” (LYNK PHARMACEUTICALS CO. LTD., priority 2021, published 2025)
